Experimental data reported in patent US20200255828A1, “METHODS AND COMPOSITIONS FOR ALTERING FUNCTION AND STRUCTURE OF CHROMATIN LOOPS AND/OR DOMAINS” (THE BROAD INSTITUTE, INC., priority 2017, published 2020).

Legend:
[1] = system: histone modifications; assay: ChIP-Seq for histone modifications before and after auxin; format: cell-based, human
Text: Applicants first examined the effects of cohesin degradation on key epigenomic features associated with genome folding, using ChIP-Seq. Applicants examined the distribution of CTCF (associated with loop anchors) and the histone modifications H3K27me3, H3K36me3, H3K27Ac, H3K4me1, H3K4me3, H3K9me3, H4K16Ac, H4K20me3, H3K79me2, and H2.AZ (associated with compartment intervals). Cohesin loss had little effect on these features (FIG. 1C,D; FIG. 8C-E, see Methods).
ChIP-Seq for H3K27Ac, H3K4me1, H3K4me3, H3K36me3, H3K27me3, H3K9me3, H4K16Ac, H4K20me3, H3K79me2, and H2.AZ was performed using a native ChIP-Seq protocol. Chromatin from untreated HCT-116 RAD21-mAC cells or cells treated for 6 hours with 500 uM IAA was digested with Mnase (Sigma) in digestion buffer (50 mM Tris-HCl, pH7.6, 1 mM CaCl2), 0.2% Triton X-100, butyrate 5 mM) for 5′ at 37° C. and dialyzed against RIPA buffer for 2 hrs at 4° C. Five microgram of respective antibody was incubated with 40 μl of Dynabeads Protein A (or G) for 40 min at room temperature. Antibody-bound beads were added to 500 μl of sonicated or Mnase-digested chromatin, incubated at 4° C. overnight, and washed twice with RIPA buffer, twice with RIPA buffer containing 0.3 M NaCl, twice with LiCl buffer (0.25 M LiCl, 0.5% Igepal-630, 0.5% sodium deoxycholate), once with TE (pH 8.0) plus 0.2% Triton X-100, and once with TE (pH 8.0). ChIP DNA was purified by phenol-chloroform extraction followed by ethanol precipitation. Libraries were prepped for Illumina sequencing and 50 bp single-end reads were sequenced on a HiSeq2000 or 2500 (Illumina). Applicants also performed ChIP-Seq for RAD21 and CTCF following the same protocol as above, except that cells were fixed with 1% formaldehyde for 10 minutes at 37° C. and fixation was quenched by the addition of glycine to a final concentration of 125 mM for 10 minutes. The fixed cells were sonicated using a Branson sonifier at amplitude 35%, 12 cycles of 20 seconds of sonication and 30 seconds of pause. Antibody was added to the sonicated chromatin as above and the samples were further processed as above.
All ChIP-Seq data was aligned to hg19 with BWA […] (Li and Durbin, 2010), deduplicated using PicardTools, and analyzed with MACS 2.0 (Liu, 2014). All data was normalized against the corresponding input control using the ‘-c’ option of MACS 2.0. ChIP-Seq peaks were called using the ‘callpeak’ function of MACS 2.0 with default parameters. For H3K4me3 and H3K4me1, Applicants additionally used the ‘broad’ option of MACS 2.0 and merged close by peaks to identify broad peaks. […] Finally, in order to annotate broad-source domains, Applicants utilized RSEG (Song and Smith, 2011) using the following flags: ‘-b 25000’, ‘-i 20’, ‘-mode 2’.
Applicants calculated average signal over 5 kb bins across the entire genome and correlated signal between ChIP-Seq experiments before and after auxin treatment for each of CTCF, H3K27me3, H3K9me3, H3K4me1, H3K4me3 and H3K27Ac.
Additionally, Applicants examined overlaps of our ChIP-Seq peak annotations before and after auxin treatment for H3K4me3, H3K4me1 and H3K27Ac. […]

[2] = system: HCT-116-CMV-OsTIR1 cells; assay: PRO-Seq control for the auxin hormone itself; format: cell-based, human; conditions: no mAID tag on any protein
Procedure: To measure changes in transcription resulting from cohesin loss, Applicants performed precision run-on sequencing (PRO-Seq) (Jonkers and Lis, 2015), a variant of global run-on sequencing (GRO-Seq), using a single biotinylated nucleotide (biotin-11-CTP) as previously described (Engreitz et al., 2016). Applicants made one modifications to the protocol: at the end of each biotin enrichment, Applicants eluted biotinylated RNAs from the streptavidin-coated magnetic beads by heating beads in 25 μl of 20 mM Tris-HCl pH 7.5, 10 mM EDTA, 2% N-lauroylsarcosine at 95° C. for 5 minutes, followed by a magnetic-bead nucleic acid purification with 20 μl of MyONE SILANE beads. During the nuclei preparation step, Applicants processed pairs of RAD21-mAC cells with and without auxin treatment in parallel. In addition, Applicants performed PRO-Seq on HCT-116 CMV-OsTIR1 cells, the parental cell line of RAD21-mAC containing the OsTIR1 gene integrated at the AAVS1 locus and no mAID tags integrated on any protein. By performing PRO-Seq on CMV-OsTIR1 cells with and without auxin treatment, Applicants could control for transcriptional effects of the auxin treatment itself on HCT-116 cells, as well as any consequences of tagging the RAD21 protein. […]

O=C(O)Cc1c[nH]c2ccccc12 [auxin, indole-3-acetic acid]
overlap of H3K4me1 ChIP-Seq peaks called before and after auxin treatment [1]: 85% | overlap of H3K4me3 ChIP-Seq peaks called before and after auxin treatment [1]: 90% | overlap of H3K27Ac ChIP-Seq peaks called before and after auxin treatment [1]: 81% | Spearman's r of ChIP-Seq signal before vs after auxin treatment, H2.AZ ([1]; 5 kb bins genome-wide): 0.96 | Spearman's r of ChIP-Seq signal before vs after auxin treatment, H3K4me1 ([1]; 5 kb bins genome-wide): 0.94 | Spearman's r of ChIP-Seq signal before vs after auxin treatment, H3K4me3 ([1]; 5 kb bins genome-wide): 0.70 | Spearman's r of ChIP-Seq signal before vs after auxin treatment, H3K9me3 ([1]; 5 kb bins genome-wide): 0.95 | Spearman's r of ChIP-Seq signal before vs after auxin treatment, H3K27Ac ([1]; 5 kb bins genome-wide): 0.90 | Spearman's r of ChIP-Seq signal before vs after auxin treatment, H3K27me3 ([1]; 5 kb bins genome-wide): 0.95 | Spearman's r of ChIP-Seq signal before vs after auxin treatment, H3K36me3 ([1]; 5 kb bins genome-wide): 0.94 | Spearman's r of ChIP-Seq signal before vs after auxin treatment, H3K79me2 ([1]; 5 kb bins genome-wide): 0.96 | Spearman's r of ChIP-Seq signal before vs after auxin treatment, H4K16Ac ([1]; 5 kb bins genome-wide): 0.95 | Spearman's r of ChIP-Seq signal before vs after auxin treatment, H4K20me3 ([1]; 5 kb bins genome-wide): 0.89 | number of genes detected as significantly different before vs after auxin treatment [2]: 105 | number of genes significantly different with at least a 1.3-fold change [2]: 56
